In publication PMC5030359, “Cathelicidin Antimicrobial Peptides with Reduced Activation of Toll-Like Receptor Signaling Have Potent Bactericidal Activity against Colistin-Resistant Bacteria” (mBio, 2016):
In brackets after ≈: the same amount, converted by molar mass. Bridge positions count the residues as written; N and C are the ends. Square brackets hold non-standard residues; d marks the D form. Peptide text beside a SMILES is read from it. * marks the point of attachment. X1 = CC[C@H](C)CCCCC(=O)*; Dab = NCC[C@H](N)C(=O)O

Experiments:
Serratia marcescens = conditions: strains with MIC of 16 µg/ml or less / strains tested
Protocol: (§1) The bacterial species tested are Klebsiella pneumoniae (K. p.), Serratia marcescens (S. m.), Enterobacter cloacae (E. cl.), Escherichia coli (E. c.), and Pseudomonas aeruginosa (P. a.). MICs were determined by the microdilution assay. […] The results are the median values of at least three independent assays.
(§2) Antimicrobial activity was determined using the broth microdilution method based on the guidelines of the Clinical and Laboratory Standards Institute (CLSI) ([39]), using cation-adjusted Mueller-Hinton broth (CAMHB) as the testing medium. Reference Gram-positive and Gram-negative bacteria were tested, including both enteric and Pseudomonas aeruginosa strains. Each MIC was determined in at least three independent assays.

Klebsiella pneumoniae = conditions: for # strains inhibited at 16 µg/ml peptide K. p.: strains with MIC of 16 µg/ml or less / strains tested
Protocol: as §1, §2

Enterobacter cloacae = conditions: strains with MIC of 16 µg/ml or less / strains tested
Protocol: as §1, §2

K. pneumoniae = assay: Bacterial killing, colony formation (CFU); type: cell-based, Klebsiella pneumoniae; conditions: 2 µM; Fig. 5C (K. pneumoniae 59) and data not shown

Protocol for 19 Gram-negative strains: (A) Sequences of the cathelicidins, the numbers of bacterial strains killed, and hRBC lysis by the cathelicidins. […] The bacterial species tested are Klebsiella pneumoniae (K. p.), Serratia marcescens (S. m.), Enterobacter cloacae (E. cl.), Escherichia coli (E. c.), and Pseudomonas aeruginosa (P. a.). MICs were determined by the microdilution assay. […] The results are the median values of at least three independent assays.
We tested a panel of cathelicidins for inhibiting growth of 19 Gram-negative strains from the family Enterobacteriaceae and the nonfermentative bacteria. The species tested were Enterobacter cloacae ([2]), Escherichia coli ([5]), Klebsiella pneumoniae ([4]), Pseudomonas aeruginosa ([4]), and Serratia marcescens ([4]). All of the strains selected have been characterized for their antibiotic resistance profiles.
as §2
Protocol for E. faecalis: as §2
Protocol for Escherichia coli: as §1, §2
Protocol for Pseudomonas aeruginosa: as §1, §2
Protocol for S. aureus: as §2

SMILES | # strains inhibited at 16 µg/ml peptide S. m. (Serratia marcescens) | # strains inhibited at 16 µg/ml peptide K. p. (Klebsiella pneumoniae) | MIC S. aureus 25923 (S. aureus) [µg/mL] | MIC S. aureus 29213 (S. aureus) [µg/mL] | No. of strains inhibited at 16 µg/ml/total no. of strains (19 Gram-negative strains) | # strains inhibited at 16 µg/ml peptide E. c. (Escherichia coli) | # strains inhibited at 16 µg/ml peptide E. cl. (Enterobacter cloacae) | # strains inhibited at 16 µg/ml peptide P. a. (Pseudomonas aeruginosa) | MIC E. faecalis 29212 (E. faecalis) [µg/mL] | MIC E. faecalis 51299 (E. faecalis) [µg/mL] | fold reduction in CFU, colistin-resistant K. pneumoniae (K. pneumoniae) [fold] | MIC K. pneumoniae 59 (Klebsiella pneumoniae; carbapenem-resistant, colistin-resistant clinical isolate (ST258)) [µM] | MIC (µM) K. pneumoniae 88 (Klebsiella pneumoniae; carbapenem-resistant, colistin-resistant clinical isolate (ST674), microbroth MIC (SD)) [µM]
CC[C@H](C)[C@H](NC(=O)[C@@H](NC(=O)[C@@H]1CCCN1C(=O)[C@H](CO)NC(=O)[C@H](CC(C)C)NC(=O)[C@H](CCCCN)NC(=O)[C@H](CCCCN)NC(=O)[C@H](Cc1ccccc1)NC(=O)[C@H](CC(C)C)NC(=O)[C@H](CCCCN)NC(=O)[C@H](CCCCN)NC(=O)[C@H](Cc1ccccc1)NC(=O)[C@H](CCCCN)NC(=O)[C@H](CCCCN)NC(=O)[C@H](CCCNC(=N)N)NC(=O)[C@H](CC(C)C)NC(=O)[C@H](CCCNC(=N)N)NC(=O)[C@H](CCCCN)NC(=O)[C@H](Cc1ccccc1)NC(=O)[C@H](CCCNC(=N)N)NC(=O)CN)C(C)C)C(=O)N1CCC[C@H]1C(=O)N[C@@H](CC(C)C)C(=O)N[C@@H](CC(C)C)C(=O)N[C@@H](Cc1c[nH]cn1)C(=O)N[C@@H](CC(C)C)C(=O)NCC(=O)O [BMAP-27A] (H-GRFKRLRKKFKKLFKKLSPVIPLLHLG-OH; N-terminus and C-terminus assumed) | 3/3 | 4/4 | 16 (≈ 4.92 µM) | 16 (≈ 4.92 µM) | 19/19 | 6/6 | 2/2 | 4/4 | >32 | >32 | – | – | –
CC[C@H](C)[C@H](NC(=O)[C@@H](NC(=O)[C@@H]1CCCN1C(=O)[C@H](CO)NC(=O)[C@H](CC(C)C)NC(=O)[C@H](CCCCN)NC(=O)[C@H](CCCCN)NC(=O)[C@H](C)NC(=O)[C@H](CC(C)C)NC(=O)[C@H](CCCCN)NC(=O)[C@H](CCCCN)NC(=O)[C@H](CC(C)C)NC(=O)[C@H](CCCCN)NC(=O)[C@H](CCCCN)NC(=O)[C@H](CCCNC(=N)N)NC(=O)[C@H](CC(C)C)NC(=O)[C@H](CCCNC(=N)N)NC(=O)[C@H](CCCCN)NC(=O)[C@H](C)NC(=O)[C@H](CCCNC(=N)N)NC(=O)CN)C(C)C)C(=O)N1CCC[C@H]1C(=O)N[C@@H](CC(C)C)C(=O)N[C@@H](CC(C)C)C(=O)N[C@@H](Cc1c[nH]cn1)C(=O)N[C@@H](CC(C)C)C(=O)NCC(=O)O [BMAP-27C] (H-GRAKRLRKKLKKLAKKLSPVIPLLHLG-OH) | 2/3 | 4/4 | >32 | 32 (≈ 10.4 µM) | 17/19 | 6/6 | 2/2 | 4/4 | >32 | >32 | – | – | –
CC[C@H](C)CCCCC(=O)N[C@@H](CCN)C(=O)N[C@H](C(=O)N[C@@H](CCN)C(=O)N[C@H]1CCNC(=O)[C@H]([C@@H](C)O)NC(=O)[C@H](CCN)NC(=O)[C@H](CCN)NC(=O)[C@H](CC(C)C)NC(=O)[C@@H](CC(C)C)NC(=O)[C@H](CCN)NC1=O)[C@@H](C)O [Colistin, colistin] (X1-[Dab]T[Dab][Dab][Dab][dL]L[Dab][Dab]T; lactam 4-C (inferred); N-terminus assumed) | – | – | – | – | – | – | – | – | – | – | 1.4 | 6.4 (≈ 7.48 µg/mL) | 6.4 (≈ 7.48 µg/mL)
CC[C@H](C)[C@H](NC(=O)[C@H](CCCCN)NC(=O)[C@H](C)NC(=O)[C@H](CCCCN)NC(=O)[C@H](CO)NC(=O)[C@H](CCCCN)NC(=O)[C@H](CCCNC(=N)N)NC(=O)[C@H](Cc1ccccc1)NC(=O)[C@H](Cc1ccccc1)NC(=O)[C@H](C)NC(=O)CNC(=O)[C@H](CC(C)C)NC(=O)[C@@H](N)CC(C)C)C(=O)NCC(=O)N[C@@H](CCCCN)C(=O)N[C@@H](C)C(=O)N[C@@H](Cc1ccccc1)C(=O)N[C@@H](CCCCN)C(=O)N[C@@H](CCCNC(=N)N)C(=O)N[C@H](C(=O)N[C@H](C(=O)N[C@@H](CCC(N)=O)C(=O)N[C@@H](CCCNC(=N)N)C(=O)N[C@H](C(=O)N[C@@H](CCCCN)C(=O)N[C@@H](C)C(=O)N[C@@H](Cc1ccccc1)C(=O)N[C@@H](CC(C)C)C(=O)N[C@@H](CCCNC(=N)N)C(=O)O)[C@@H](C)CC)C(C)C)[C@@H](C)CC [LL-29V2] (H-LLGAFFRKSKAKIGKAFKRIVQRIKAFLR-OH) | 1/3 | 4/4 | – | – | 4/19 | 4/6 | 1/2 | 1/4 | – | – | – | – | –
CC[C@H](C)[C@H](NC(=O)[C@H](CCCCN)NC(=O)[C@H](CCC(=O)O)NC(=O)[C@H](CCCCN)NC(=O)[C@H](CO)NC(=O)[C@H](CCCCN)NC(=O)[C@H](CCCNC(=N)N)NC(=O)[C@H](Cc1ccccc1)NC(=O)[C@H](Cc1ccccc1)NC(=O)[C@H](C)NC(=O)CNC(=O)[C@H](CC(C)C)NC(=O)[C@@H](N)CC(C)C)C(=O)NCC(=O)N[C@@H](CCCCN)C(=O)N[C@@H](C)C(=O)N[C@@H](Cc1ccccc1)C(=O)N[C@@H](CCCCN)C(=O)N[C@@H](CCCNC(=N)N)C(=O)N[C@H](C(=O)N[C@H](C(=O)N[C@@H](CCC(N)=O)C(=O)N[C@@H](CCCNC(=N)N)C(=O)N[C@H](C(=O)N[C@@H](CCCCN)C(=O)N[C@@H](CC(=O)O)C(=O)N[C@@H](Cc1ccccc1)C(=O)N[C@@H](CC(C)C)C(=O)N[C@@H](CCCNC(=N)N)C(=O)O)[C@@H](C)CC)C(C)C)[C@@H](C)CC [LL-29V] (H-LLGAFFRKSKEKIGKAFKRIVQRIKDFLR-OH) | 0/3 | 0/4 | – | – | 11/19 | 3/6 | 1/2 | 0/4 | – | – | – | – | –
CC[C@H](C)[C@H](NC(=O)[C@H](CCCCN)NC(=O)[C@H](CCC(=O)O)NC(=O)[C@H](CCCCN)NC(=O)[C@H](CO)NC(=O)[C@H](CCCCN)NC(=O)[C@H](CCCNC(=N)N)NC(=O)[C@H](Cc1ccccc1)NC(=O)[C@H](Cc1ccccc1)NC(=O)[C@H](CC(=O)O)NC(=O)CNC(=O)[C@H](CC(C)C)NC(=O)[C@@H](N)CC(C)C)C(=O)NCC(=O)N[C@@H](CCCCN)C(=O)N[C@@H](CCC(=O)O)C(=O)N[C@@H](Cc1ccccc1)C(=O)N[C@@H](CCCCN)C(=O)N[C@@H](CCCNC(=N)N)C(=O)N[C@H](C(=O)N[C@H](C(=O)N[C@@H](CCC(N)=O)C(=O)N[C@@H](CCCNC(=N)N)C(=O)N[C@H](C(=O)N[C@@H](CCCCN)C(=O)N[C@@H](CC(=O)O)C(=O)N[C@@H](Cc1ccccc1)C(=O)N[C@@H](CC(C)C)C(=O)N[C@@H](CCCNC(=N)N)C(=O)O)[C@@H](C)CC)C(C)C)[C@@H](C)CC [LL-29] (H-LLGDFFRKSKEKIGKEFKRIVQRIKDFLR-OH; N-terminus and C-terminus assumed) | 0/3 | 0/4 | – | – | 4/19 | 2/6 | 1/2 | 0/4 | – | – | – | – | –
